Assay results as given in patent US20260166029A1, “METHODS AND SYSTEMS FOR TREATING DISEASE USING AN ATR/CHK1 SIGNALING PATHWAY INHIBITOR” (Acrivon Therapeutics, Inc., priority 2022, published 2026).
Read-outs that look alike come from different tables or passages of the source.

How the values were obtained:
[1] = system: OV90-R; test: Cell Titer Glo 2.0 viability, prexasertib alone or with gemcitabine, three days (Example 11); format: cell-based; details: Homo sapiens, 72 h, gemcitabine 0.53 nM, read-out: Prexasertib Relative IC50
Protocol: (§1) The present Example provides experimental evidence that treatment with gemcitabine sensitizes human cancer cell lines to treatment with prexasertib. A panel of human cancer cell lines were treated with various concentrations of prexasertib (0.17, 0.51, 1.5, 4.6, 13.7, 31.2, 123.5, 370.4, 1111, 3333, and 10000 nM) alone or in combination with various low dose concentrations of gemcitabine (0.53 and 2.7 nM). The panel of cell lines included ovarian, endometrial, bladder, breast, and prostate cancer cell lines. Two ovarian cancer cell lines (OVCAR3 and OV90) were used to generate acquired prexasertib resistant cells. For both cell lines, the parental cells (OVCAR3-P and OV90-P) and acquired prexasertib resistant cells (OVCAR3-R and OV90-R) were tested. Additionally, the panel included three cell lines that are naïve resistant to prexasertib (SW780, T47D, and PC3). After three days of treatment, cell viability relative to DMSO control was assessed using Cell Titer Glo 2.0 (Promega).
(§2) To determine whether gemcitabine and prexasertib acts synergistically, additively, or potentially antagonistically, the panel of human cancer cell lines were treated with various concentrations of prexasertib (0.17, 0.51, 1.5, 4.6, 13.7, 31.2, 123.5, 370.4, 1111, 3333, and 10000 nM) in combination with various concentrations of gemcitabine (1, 3, 13, 67, 333, 1667, 8333 nM). After three days treatment, cell viability relative to DMSO control was assessed using Cell Titer Glo 2.0 (Promega). Drug combination effect was evaluated using SynergyFinder 2.0, see Ianevski et al., Nucleic Acids Res., gkaa216 (2020), and is presented in Table 15 as a Bliss synergy score for each cell line. Bliss synergy scores greater than 10 are indicative of a synergistic effect between prexasertib and gemcitabine, while scores between 10 and −10 are indicative of an additive effect and scores less than −10 are indicative of an antagonistic effect. […] Taken together, the results of this Example support use of a combination of prexasertib and gemcitabine (e.g., low doses of gemcitabine) for treatment of predicted non-responders to prexasertib treatment.

[2] = system: KLE; test: as above; format: cell-based; details: Homo sapiens, 72 h, read-out: Prexasertib Relative IC50
Protocol: as §1, §2

[3] = system: OVCAR3-P; test: as above; format: cell-based; details: Homo sapiens, 72 h
Protocol: as §1, §2

[4] = system: A2780; test: as above; format: cell-based; details: Homo sapiens, A2780, 72 h
Protocol: as §1, §2

[5] = system: TCCSUP; test: as above; format: cell-based; details: Homo sapiens, TCC-SUP, 72 h
Protocol: as §1, §2

[6] = system: PC3; test: as above; format: cell-based; details: Homo sapiens, PC-3, 72 h, gemcitabine 0.53 nM, read-out: Prexasertib Relative IC50
Protocol: as §1, §2

[7] = system: AN3CA; test: as above; format: cell-based; details: Homo sapiens, AN3-CA, 72 h
Protocol: as §1, §2

[8] = system: SW780; test: as above; format: cell-based; details: Homo sapiens, 72 h, gemcitabine 0.53 nM
Protocol: as §1, §2

[9] = system: OVCAR3-R; test: as above; format: cell-based; details: Homo sapiens, 72 h
Protocol: as §1, §2

[10] = system: T47D; test: as above; format: cell-based; details: Homo sapiens, 72 h, gemcitabine 0.53 nM, read-out: Prexasertib Relative IC50
Protocol: as §1, §2

[11] = system: OV90-P; test: as above; format: cell-based; details: Homo sapiens, 72 h
Protocol: as §1, §2

[12] = system: Anal, SCC; details: cited from earlier work
[13] = system: ST1949 ovarian PDX tumor; test: Response to prexasertib treatment in ovarian PDX tumor model (Example 3); format: in vivo
Description: (§3) To evaluate whether the provided Response-Predictive Signature can predict response to prexasertib treatment, the predicted response for each PDX model was compared to an experimentally determined response to prexasertib treatment for the same PDX model. The experimentally measured response was quantified as follows: if a treated tumor reduced in size/volume, then the percent regression compared to an initial volume of a treated tumor was provided, if a treated tumor increased in size/volume, then a percent ratio of the treated tumor's growth was divided by control tumor (i.e., untreated tumor) growth (d[T/C]). Negative values for regression percentage indicate response to treatment with prexasertib, while positive values indicate continued growth and non-response to prexasertib treatment. The experimentally measured response was further categorized as complete regression (near −100% regression), partial regression (−50% to −100% regression), stasis (<20% median tumor growth to −50% regression), and growth (>20% median tumor growth).

[14] = system: ST1986B ovarian PDX tumor; test: as above; format: in vivo
Description: as §3

[15] = system: ST025 ovarian PDX tumor; test: as above; format: in vivo
Description: as §3

[16] = system: ST255 ovarian PDX tumor; test: as above; format: in vivo
Description: as §3

[17] = system: ST1526 ovarian PDX tumor; test: as above; format: in vivo
Description: as §3

[18] = system: ST1301 ovarian PDX tumor; test: as above; format: in vivo
Description: as §3

[19] = system: HCT116; details: HCT116 cell line; external data from prior publications; cited from earlier work
[20] = gemcitabine 0 nM, read-out: Prexasertib Absolute IC50
[21] = gemcitabine 0 nM, read-out: Prexasertib Relative IC50
[22] = gemcitabine 0.53 nM, read-out: Prexasertib Absolute IC50
[23] = gemcitabine 0.53 nM, read-out: Prexasertib Relative IC50
[24] = gemcitabine 2.7 nM, read-out: Prexasertib Absolute IC50
[25] = gemcitabine 2.7 nM, read-out: Prexasertib Relative IC50

COc1cccc(OCCCN)c1-c1cc(Nc2cnc(C#N)cn2)n[nH]1 [prexasertib, 5-(5-(2-(3-aminopropoxy)-6-methoxyphenyl)-1H-pyrazol-3-ylamino)pyrazine-2-carbonitrile]
IC50 [1]: 0.03 nM
IC50 ([2]; gemcitabine 0 nM): 0.36 nM
IC50 ([2]; gemcitabine 0.53 nM): 0.02 nM
IC50 [3, 20]: 16 nM
IC50 [3, 21]: 8 nM
IC50 [3, 22]: 3 nM
IC50 [3, 23]: 1.4 nM
IC50 [3, 24]: 0.2 nM
IC50 [3, 25]: 0.1 nM
IC50 [4, 21]: 8.5 nM
IC50 [4, 22]: 0.5 nM
IC50 [4, 23]: 0.3 nM
IC50 [5, 20]: 2.8 nM
IC50 [5, 21]: 1.4 nM
IC50 [5, 22]: 0.08 nM
IC50 [5, 23]: 0.04 nM
IC50 [6]: 0.15 nM
IC50 [7, 20]: 2.2 nM
IC50 [7, 21]: 1.5 nM
IC50 [7, 22]: 0.3 nM
IC50 [7, 23]: 0.2 nM
IC50 ([8]; read-out: Prexasertib Absolute IC50): 0.3 nM
IC50 ([8]; read-out: Prexasertib Relative IC50): 0.06 nM
IC50 [9, 22]: 106 nM
IC50 [9, 23]: 30 nM
IC50 [9, 24]: 6.2 nM
IC50 [9, 25]: 4 nM
IC50 [10]: 0.22 nM
IC50 [11, 20]: 49 nM
IC50 [11, 21]: 0.5 nM
IC50 [11, 22]: 0.93 nM
IC50 [11, 23]: 0.14 nM
ORR in trials [12]: 15%
Response type [13]: G (G = growth)
Best d[T/C], or Regression ([13]; negative = regression): 56%
Response type [14]: G (G = growth)
Best d[T/C], or Regression ([14]; negative = regression): 35.1%
Response type [15]: G (G = growth)
Best d[T/C], or Regression ([15]; negative = regression): 48.9%
Response type [16]: S (S = stasis)
Best d[T/C], or Regression ([16]; negative = regression): −8.9%
Response type [17]: PR (PR = partial regression)
Best d[T/C], or Regression ([17]; negative = regression): −90%
Response type [18]: S (S = stasis)
Best d[T/C], or Regression ([18]; negative = regression): 1.2%
EC50 [19]: 100 nM
